Reference: PMC6566875, “Synthesis and characterisation of a new benzamide-containing nitrobenzoxadiazole as a GSTP1-1 inhibitor endowed with high stability to metabolic hydrolysis” (Journal of Enzyme Inhibition and Medicinal Chemistry, 2019)
Read-outs that look alike come from different tables or passages of the source.

What was measured:
[1] = target: T1, TRAF2-GSTP1-1 complex (Homo sapiens, UniProt P09211); assay: ELISA for TRAF2-GSTP1-1 protein-protein interaction; assay type: binding; conditions: 20 µM compound, pH 7.0
T1 construct: made in house; host or cells: E. coli Top 10 (GSTP1-1); E. coli BL21 (DE3) (TRAF2)
T1 sequence (P09211 2-210 limits assumed, one chain of several): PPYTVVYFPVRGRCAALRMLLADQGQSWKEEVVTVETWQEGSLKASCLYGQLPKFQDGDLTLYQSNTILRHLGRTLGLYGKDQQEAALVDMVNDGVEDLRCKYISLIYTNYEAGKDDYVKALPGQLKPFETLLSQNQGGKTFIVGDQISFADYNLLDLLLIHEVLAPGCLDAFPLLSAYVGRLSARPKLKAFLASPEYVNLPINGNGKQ
Procedure: The formation of the TRAF2-GSTP1-1 complex was studied as previously described. Briefly, 200 µL of His-tagged TRAF2 C-terminal domain (0.005 µM in 20 mM Tris–HCl, pH 7.6, containing 150 mM NaCl and 10% glycerol) were added to each well of a 96-well His-Sorb plate (Qiagen, Hilden, Germany) and incubated overnight, at 4 °C, on a rocking platform. Afterwards, wells were washed with PBS and incubated for 30 min with GSTP1-1 (concentration range from 0.1 to 2 µM) in 10 mM potassium phosphate buffer, pH 7.0, containing 0.1 mM EDTA. Incubation with GSTP1-1 was also performed in the presence of 1 (20 µM), 3 (20 µM) or 4 (20 µM), both in the absence and presence of GSH (1 mM). At the end of incubation, the wells were washed with PBS and then filled with 200 µL of a mouse anti-GSTP1-1 antibody (Cell Signalling, Beverly, MA, USA; 1:1000 in TBS containing 0.1% Tween and 5% non-fat dry milk) for 2 h at room temperature. Subsequently, wells were washed with PBS and incubated with an antimouse IgG antibody (Cell Signalling; 1:1000 in TBS containing 0.1% Tween and 5% non-fat dry milk) for 45 min at room temperature. The immunocomplexes were detected by the addiction of 200 µL/well of the 1-Step-Turbo TMB substrate solution (Pierce, Rockford, IL, USA). The reaction was stopped after 10 min by the addition of 50 µL of 2M H2SO4, and the absorbance was measured at 450 nm. Data were analysed by fitting to Equation (1) where ν is the percentage of the saturated binding sites of TRAF2; [P]t and [L]t are the total concentrations of monomeric GSTP1-1 and TRAF2, respectively.

[2] = target: T2, human GSTP1-1 (Homo sapiens, UniProt P09211); conditions: 1 mM GSH, 1 mM CDNB, pH 6.5, 25 °C; read-out: GSTP1-1 inhibition assay IC50; cited from earlier work
T2 construct: made in house; host or cells: E. coli Top 10
T2 sequence (P09211 2-210 limits assumed): as the sequence (P09211 2-210 limits assumed, one chain of several) above

[3] = target: T2, human GSTP1-1; assay: GSTP1-1 catalytic activity inhibition (CDNB-GSH conjugation, spectrophotometric); assay type: biochemical; conditions: detergent-free buffer
Procedure: The enzymatic activity of GSTP1-1 (20 nM subunits) was spectrophotometrically assayed at 340 nm (ε = 9,600 M^−1 cm^−1) and at 25 °C, by measuring the rate of 1-cloro-2,4-dinitrobenzene (CDNB) conjugation with GSH as a function of time[20]. The assay mixture contained 1 mM GSH and 1 mM CDNB in 1 mL of buffer B (0.1 M potassium phosphate buffer, pH 6.5 containing 0.1 mM EDTA).

SMILES | Effect on TRAF2-GSTP1-1 complex formation ([1]; presence of GSH (1 mM)) | IC50 [2] | Maximal inhibition of GSTP1-1 conjugation activity ([3]; 0.01-20 µM compound) | IC50 ([3]; 1 mM GSH, 1 mM CDNB, pH 6.5, 25 °C) | Ki ([3]; 1 mM GSH, 1 mM CDNB, pH 6.5, 25 °C, read-out: Ki app (GSTP1-1 enzyme activity)) | Extent of inhibition of GSTP1-1 enzyme activity ([3]; 0.01-20 µM compound) | Effect on TRAF2-GSTP1-1 complex formation ([1]; absence of GSH)
O=[N+]([O-])c1ccc(SCCCCCCO)c2nonc12 [Compound 1, 6-((7-nitrobenzo[c][1,2,5]oxadiazol-4-yl)thio)hexan-1-ol, reference compound] | overlaps those obtained with 3 and 4 |  |  |  |  |  | 
O=C(OCCCCCCSc1ccc([N+](=O)[O-])c2nonc12)c1ccccc1 [Compound 3, 6-((7-nitrobenzo[c][1,2,5]oxadiazol-4-yl)thio)hexyl benzoate, reference compound] |  | 600 ± 300 nM | no more than 50% |  |  |  | 
O=C(NCCCCCCSc1ccc([N+](=O)[O-])c2nonc12)c1ccccc1 [Compound 4, N-(6-((7-nitrobenzo[c][1,2,5]oxadiazol-4-yl)thio)hexyl)benzamide] | inhibited TRAF2-GST-P1-1 complex formation |  |  | 700 ± 100 nM | 700 ± 100 nM | completely inhibited | inhibited TRAF2-GST-P1-1 complex formation
